In patent US20030144225A1, “Antisense modulation of macrophage inflammatory protein 3-alpha expression” (priority 2001, published 2003):
Strand notation (5' to 3'): a small letter for the sugar, then the base; units joined by * are phosphorothioate-linked, units joined directly phosphodiester-linked; [ ] holds rarer units or linkages, { } end groups; capitals alone tell only the bases. e = 2'-O-(2-methoxyethyl) (MOE); [5mC] = 5-methylcytosine; d = 2'-deoxy (DNA)

Key:
[1] = tested on: human macrophage inflammatory protein 3-alpha mRNA; test: Antisense inhibition of human macrophage inflammatory protein 3-alpha mRNA levels, quantitative real-time PCR (Table 1 screen); format: cell-based; settings: averages from two experiments, oligonucleotide concentration not given
[2] = tested on: human macrophage inflammatory protein 3-alpha mRNA; test: Dose-response inhibition of cytokine-induced macrophage inflammatory protein 3-alpha mRNA expression in NHEK cells; format: cell-based; settings: 24 Hr after oligonucleotide treatment, percent inhibition of cytokine-induced control, averages from two experiments; for % Inhibition of cytokine induced macrophage inflammatory protein 3-alpha mRNA expression, 50 nM: 50 nM oligonucleotide; for % Inhibition of cytokine induced macrophage inflammatory protein 3-alpha mRNA expression, 100 nM: 100 nM oligonucleotide; for % Inhibition of cytokine induced macrophage inflammatory protein 3-alpha mRNA expression, 200 nM: 200 nM oligonucleotide

Row | Substance | % INHIB (inhibition of human macrophage inflammatory protein 3-alpha mRNA levels) [1] | % Inhibition of cytokine induced macrophage inflammatory protein 3-alpha mRNA expression, 50 nM [2] | % Inhibition of cytokine induced macrophage inflammatory protein 3-alpha mRNA expression, 100 nM [2] | % Inhibition of cytokine induced macrophage inflammatory protein 3-alpha mRNA expression, 200 nM [2]
1 | 150677 (antisense eT*eA*e[5mC]*e[5mC]*e[5mC]*dA*dG*dT*dT*d[5mC]*dT*dT*dT*dG*dG*eG*eA*eG*eT*eG) [compound 150677] | 0% |  |  | 
2 | 150678 (antisense eA*eG*eT*eG*eT*dT*dG*dA*dG*dT*dA*d[5mC]*d[5mC]*d[5mC]*dA*eG*eT*eT*e[5mC]*eT) [compound 150678] | 34% |  |  | 
3 | 150679 (antisense eA*eG*eA*eT*e[5mC]*dT*dG*d[5mC]*dT*d[5mC]*dA*dG*dT*dG*dT*eT*eG*eA*eG*eT) [compound 150679] | 16% |  |  | 
4 | 150680 (antisense e[5mC]*eT*e[5mC]*eA*eA*dA*dG*dA*dA*d[5mC]*dA*dG*dA*dT*d[5mC]*eT*eG*e[5mC]*eT*e[5mC]) [compound 150680] | 41% | 13% | 47% | 68%
5 | 150681 (antisense eT*eG*eG*eT*eT*dT*dT*dT*dA*dG*d[5mC]*dT*d[5mC]*dA*dA*eA*eG*eA*eA*e[5mC]) [compound 150681] | 22% |  |  | 
6 | 150683 (antisense eA*eA*eG*eT*eT*dG*d[5mC]*dT*dT*dG*d[5mC]*dT*dG*d[5mC]*dT*eT*e[5mC]*eT*eG*eA) [compound 150683] | 15% |  |  | 
7 | 150684 (antisense e[5mC]*eA*eG*e[5mC]*eA*dG*dT*d[5mC]*dA*dA*dA*dG*dT*dT*dG*e[5mC]*eT*eT*eG*e[5mC]) [compound 150684] | 15% |  |  | 
8 | 150685 (antisense eG*eT*eG*eT*eG*dA*dA*dA*dG*dA*dT*dG*dA*dT*dA*eG*e[5mC]*eA*eT*eT) [compound 150685] | 0% |  |  | 
9 | 150686 (antisense eA*eT*eT*e[5mC]*e[5mC]*dA*dG*dA*dA*dA*dA*dG*d[5mC]*d[5mC]*dA*e[5mC]*eA*eG*eT*eT) [compound 150686] | 1% |  |  | 
10 | 150687 (antisense eG*eT*e[5mC]*e[5mC]*eA*dA*dT*dT*d[5mC]*d[5mC]*dA*dT*dT*d[5mC]*d[5mC]*eA*eG*eA*eA*eA) [compound 150687] | 34% | 19% | 51% | 65%
11 | 150688 (antisense e[5mC]*eT*eT*eG*eG*dG*d[5mC]*dT*dA*dT*dG*dT*d[5mC]*d[5mC]*dA*eA*eT*eT*e[5mC]*e[5mC]) [compound 150688] | 46% | 43% | 69% | 80%
12 | 150689 (antisense e[5mC]*eA*eA*eG*eG*dT*dT*d[5mC]*dT*dT*dT*d[5mC]*dT*dG*dT*eT*e[5mC]*eT*eT*eG) [compound 150689] | 41% | 16% | 60% | 77%
13 | 150692 (antisense eG*e[5mC]*eA*eA*eT*dA*dT*dG*dA*dA*dT*d[5mC]*dA*dA*d[5mC]*eT*eT*e[5mC]*eA*eT) [compound 150692] | 39% | 34% | 59% | 73%
14 | 150693 (antisense eA*e[5mC]*eT*eA*eT*dG*dA*dT*dG*d[5mC]*dA*dA*dT*dA*dT*eG*eA*eA*eT*e[5mC]) [compound 150693] | 29% | 25% | 58% | 63%
15 | 150694 (antisense eA*eT*eG*eT*eG*dA*dT*dG*d[5mC]*dT*dT*dA*dA*dA*d[5mC]*eA*eA*eA*eG*e[5mC]) [compound 150694] | 30% |  |  | 
16 | 150695 (antisense e[5mC]*eA*e[5mC]*eA*eG*dA*dA*dA*dA*d[5mC]*d[5mC]*dT*dA*d[5mC]*dA*eG*e[5mC]*eT*eA*eT) [compound 150695] | 11% |  |  | 

Row | Substance | % INHIB (inhibition of human macrophage inflammatory protein 3-alpha mRNA levels) [1] | % Inhibition of cytokine induced macrophage inflammatory protein 3-alpha mRNA expression, 50 nM [2] | % Inhibition of cytokine induced macrophage inflammatory protein 3-alpha mRNA expression, 100 nM [2] | % Inhibition of cytokine induced macrophage inflammatory protein 3-alpha mRNA expression, 200 nM [2]
17 | 150696 (antisense eG*e[5mC]*eA*e[5mC]*eT*dA*dA*dA*d[5mC]*d[5mC]*dA*dA*dA*dA*dT*eA*eG*e[5mC]*eT*eT) [compound 150696] | 27% |  |  | 
18 | 150697 (antisense eG*e[5mC]*eA*eA*eG*dA*dA*dA*dG*dT*d[5mC]*d[5mC]*dA*dT*dA*eT*eA*eA*eT*e[5mC]) [compound 150697] | 18% |  |  | 
19 | 150698 (antisense eG*e[5mC]*eA*eA*eT*dT*dA*d[5mC]*dA*dA*d[5mC]*dA*dA*dT*dT*eT*eA*eG*eG*eA) [compound 150698] | 21% |  |  | 
20 | ISIS 150678: 2′-MOE gapmer, phosphorothioate, 5-methylcytidines; AGTGTTGAGTACCCAGTTCT (antisense eA*eG*eT*eG*eT*dT*dG*dA*dG*dT*dA*d[5mC]*d[5mC]*d[5mC]*dA*eG*eT*eT*e[5mC]*eT) | at least 20% |  |  | 
21 | ISIS 150680: 2′-MOE gapmer, phosphorothioate, 5-methylcytidines; CTCAAAGAACAGATCTGCTC (antisense e[5mC]*eT*e[5mC]*eA*eA*dA*dG*dA*dA*d[5mC]*dA*dG*dA*dT*d[5mC]*eT*eG*e[5mC]*eT*e[5mC]) | at least 20% |  |  | 
22 | ISIS 150681: 2′-MOE gapmer, phosphorothioate, 5-methylcytidines; TGGTTTTTAGCTCAAAGAAC (antisense eT*eG*eG*eT*eT*dT*dT*dT*dA*dG*d[5mC]*dT*d[5mC]*dA*dA*eA*eG*eA*eA*e[5mC]) | at least 20% |  |  | 
23 | ISIS 150682: 2′-MOE gapmer, phosphorothioate, 5-methylcytidines; GTACAGCACATGGTTTTAG | at least 20% |  |  | 
24 | ISIS 150687: 2′-MOE gapmer, phosphorothioate, 5-methylcytidines; GTCCAATTCCATTCCAGAAA (antisense eG*eT*e[5mC]*e[5mC]*eA*dA*dT*dT*d[5mC]*d[5mC]*dA*dT*dT*d[5mC]*d[5mC]*eA*eG*eA*eA*eA) | at least 20% |  |  | 
25 | ISIS 150688: 2′-MOE gapmer, phosphorothioate, 5-methylcytidines; CTTGGGCTATGTCCAATTCC (antisense e[5mC]*eT*eT*eG*eG*dG*d[5mC]*dT*dA*dT*dG*dT*d[5mC]*d[5mC]*dA*eA*eT*eT*e[5mC]*e[5mC]) | at least 20% |  |  | 
26 | ISIS 150689: 2′-MOE gapmer, phosphorothioate, 5-methylcytidines; CAAGGTTCTTTCTGTTCTTG (antisense e[5mC]*eA*eA*eG*eG*dT*dT*d[5mC]*dT*dT*dT*d[5mC]*dT*dG*dT*eT*e[5mC]*eT*eT*eG) | at least 20% |  |  | 
27 | ISIS 150690: 2′-MOE gapmer, phosphorothioate, 5-methylcytidines; CTGAAACCTCCAACCCCAGC | at least 20% |  |  | 
28 | ISIS 150692: 2′-MOE gapmer, phosphorothioate, 5-methylcytidines; GCAATATGAATCAACTTCAT (antisense eG*e[5mC]*eA*eA*eT*dA*dT*dG*dA*dA*dT*d[5mC]*dA*dA*d[5mC]*eT*eT*e[5mC]*eA*eT) | at least 20% |  |  | 
29 | ISIS 150693: 2′-MOE gapmer, phosphorothioate, 5-methylcytidines; ACTATGATGCAATATGAATC (antisense eA*e[5mC]*eT*eA*eT*dG*dA*dT*dG*d[5mC]*dA*dA*dT*dA*dT*eG*eA*eA*eT*e[5mC]) | at least 20% |  |  | 
30 | ISIS 150694: 2′-MOE gapmer, phosphorothioate, 5-methylcytidines; ATGTGATGCTTAAACAAAGC (antisense eA*eT*eG*eT*eG*dA*dT*dG*d[5mC]*dT*dT*dA*dA*dA*d[5mC]*eA*eA*eA*eG*e[5mC]) | at least 20% |  |  | 
31 | ISIS 150696: 2′-MOE gapmer, phosphorothioate, 5-methylcytidines; GCACTAAACCAAAATAGCTT (antisense eG*e[5mC]*eA*e[5mC]*eT*dA*dA*dA*d[5mC]*d[5mC]*dA*dA*dA*dA*dT*eA*eG*e[5mC]*eT*eT) | at least 20% |  |  | 
32 | ISIS 150698: 2′-MOE gapmer, phosphorothioate, 5-methylcytidines; GCAATTACAACAATTTAGGA (antisense eG*e[5mC]*eA*eA*eT*dT*dA*d[5mC]*dA*dA*d[5mC]*dA*dA*dT*dT*eT*eA*eG*eG*eA) | at least 20% |  |  | 
